Results from PubChem BioAssay (NCI).
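Briefly, cells in 96-well plates were exposed to five compound concentrations for 48 h, and endpoints were estimated by linear interpolation. TGI denotes the concentration required for complete inhibition of growth.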

How the values were obtained:
Assay in all cases: NCI-60 cell line screen, 48 h
ACHN renal = tested on: ACHN renal
COLO 205 colon = tested on: COLO 205 colon
DMS 273 small cell lung = tested on: DMS 273 small cell lung
LOX IMVI melanoma = tested on: LOX IMVI melanoma
MOLT-4 leukemia = tested on: MOLT-4 leukemia
NCI-H23 lung = tested on: NCI-H23 lung
RPMI-8226 leukemia = tested on: RPMI-8226 leukemia
SF-268 CNS = tested on: SF-268 CNS
SF-295 CNS = tested on: SF-295 CNS
SK-MEL-2 melanoma = tested on: SK-MEL-2 melanoma
SK-MEL-5 melanoma = tested on: SK-MEL-5 melanoma
SK-OV-3 ovarian = tested on: SK-OV-3 ovarian
SNB-19 CNS = tested on: SNB-19 CNS
U251 CNS = tested on: U251 CNS
UACC-62 melanoma = tested on: UACC-62 melanoma
HL-60(TB) leukemia = tested on: HL-60(TB) leukemia
SNB-75 CNS = tested on: SNB-75 CNS
BT-549 breast = tested on: BT-549 breast
DU-145 prostate = tested on: DU-145 prostate
PC-3 prostate = tested on: PC-3 prostate

SMILES	TGI (ACHN renal) [µM]	TGI (COLO 205 colon) [µM]	TGI (DMS 273 small cell lung) [µM]	TGI (LOX IMVI melanoma) [µM]	TGI (MOLT-4 leukemia) [µM]	TGI (NCI-H23 lung) [µM]	TGI (RPMI-8226 leukemia) [µM]	TGI (SF-268 CNS) [µM]	TGI (SF-295 CNS) [µM]	TGI (SK-MEL-2 melanoma) [µM]	TGI (SK-MEL-5 melanoma) [µM]	TGI (SK-OV-3 ovarian) [µM]	TGI (SNB-19 CNS) [µM]	TGI (U251 CNS) [µM]	TGI (UACC-62 melanoma) [µM]	TGI (HL-60(TB) leukemia) [µM]	TGI (SNB-75 CNS) [µM]	TGI (BT-549 breast) [µM]	TGI (DU-145 prostate) [µM]	TGI (PC-3 prostate) [µM]
O=c1c(C(c2ccc([N+](=O)[O-])cc2)c2c(O)c3ccccc3n(-c3ccccc3)c2=O)c(O)c2ccccc2n1-c1ccccc1	72	63.4	> 100	27.2	41.9	34.3	57.1	98.6	33.3	31	38	> 100	> 100	75.2	14.8	–	–	–	–	–
CNS(=O)(=O)NNS(=O)(=O)c1ccc(F)cc1	> 100	> 100	> 100	> 100	> 100	> 100	> 100	> 100	> 100	> 100	> 100	–	> 100	> 100	> 100	> 100	> 100	–	–	–
CC(=O)Nn1cnc(C(=N)C#N)c1N	> 100	> 100	–	> 100	> 100	> 100	> 100	> 100	> 100	> 100	> 100	> 100	> 100	> 100	> 100	> 100	> 100	> 100	> 100	> 100
CCCCCCCC(=O)OC[C@H](C[As](=O)(O)O)OC(=O)CCCCCCC	23.1	30	24	–	14.1	28.2	32.4	15.6	27.5	–	26.8	29	27.3	19.1	21.3	22	32.3	–	–	–
COn1oc(=O)c2ccccc21	> 100	> 100	–	> 100	> 100	> 100	> 100	> 100	> 100	> 100	> 100	> 100	> 100	> 100	> 100	> 100	> 100	> 100	> 100	> 100
O=C(Nc1ccccc1)c1cc(S(=O)(=O)N2CCNC2=O)c(S)cc1Cl	> 100	> 100	–	> 100	> 100	> 100	> 100	> 100	> 100	> 100	> 100	> 100	> 100	> 100	> 100	> 100	> 100	> 100	> 100	> 100
CN1N=C2c3ccccc3OC(c3ccccc3)[C@H]2C1c1ccccc1 (stereo partly specified)	> 100	> 100	> 100	> 100	> 100	> 100	> 100	> 100	> 100	> 100	–	> 100	> 100	> 100	> 100	> 100	–	–	–	–
C#CC(C)(C)OCCCCOc1cc(O)c2c(=O)c3ccccc3n(C)c2c1	> 100	80.4	> 100	> 100	–	> 100	> 100	> 100	> 100	> 100	> 100	> 100	> 100	> 100	> 100	> 100	> 100	–	–	–
O=C1/C(=C/c2ccccc2)CCc2ccc([N+](=O)[O-])cc21	> 100	> 100	–	> 100	> 100	> 100	7.13	> 100	> 100	38.3	> 91.2	> 100	91.3	> 100	> 100	> 100	> 74.6	> 94.4	> 100	> 100
CCCCCCCC(=O)OCC1OC(n2cc(F)c(=O)[nH]c2=O)C(N)C(O)C1O (stereo unspecified)	> 100	> 100	> 100	–	> 100	> 100	> 100	> 100	> 100	> 100	> 100	> 100	> 100	> 100	> 100	> 100	> 100	–	–	–
CCOC(=O)C(NC(=O)c1ccccc1)(c1ccc(S(=O)(=O)Nc2onc(C)c2C)cc1)C(F)(F)F (stereo unspecified)	> 100	> 100	–	> 100	> 100	> 100	> 100	> 100	> 100	> 100	> 100	> 100	> 100	> 100	> 100	> 100	> 100	> 100	> 100	> 100
COC(=O)c1sc2c(=O)c(C(=O)OC)c(C(=O)OC)sc2c(=O)c1C(=O)OC	> 100	> 100	–	> 100	> 100	> 100	> 100	> 100	> 100	> 100	> 100	> 100	> 100	> 100	> 100	> 100	> 100	> 100	> 100	> 100
COc1ccc2nc3cc([N+](=O)[O-])ccc3c(Nc3ccc(S(=O)(=O)Nc4ncccn4)cc3)c2c1	> 71.8	> 100	–	> 100	> 48.3	> 23.2	> 66.1	> 100	> 100	> 86.3	> 100	> 100	> 53.6	> 100	> 100	> 100	> 100	> 100	> 100	> 100
